Values quoted from earlier work, collected in patent publication US20230380420A1, “HARD SURFACE DISINFECTING COMPOSITION” (priority 2020, published 2023).

conditions: alcohols; room temperature

SMILES	~δp
C=CCO [2-propenol]	~10.8 MPa^1/2
CCCC(C)O (stereo not drawn) [2-pentanol]	~6.4 MPa^1/2
CCCCCO [1-pentanol]	~4.5 MPa^1/2
CCCO [1-propanol]	~6.8 MPa^1/2
OCc1ccc(Cl)cc1 [4-chlorobenzyl alcohol]	~7.5 MPa^1/2
OC1C=CCC1 (stereo not drawn) [2-cyclopentenyl alcohol]	~7.6 MPa^1/2
CCO [ethanol]	~8.8 MPa^1/2
CCCCCCCCC(C)O (stereo not drawn) [2-decanol]	~10.0 MPa^1/2
CCC(CC)CO [2-ethyl-1-butanol]	~4.3 MPa^1/2
OCC(Cl)CCl (stereo not drawn) [2,3-dichloropropanol]	~9.2 MPa^1/2
CC(C)(C)O [t-butyl alcohol]	~5.1 MPa^1/2
CC(C)O [2-propanol]	~6.1 MPa^1/2
CCCCCCCCO [octanol]	~3.3 MPa^1/2
CCCCCCCC/C=C\CCCCCCCCO [oleyl alcohol]	~2.6 MPa^1/2
CCCCC(CC)CO (stereo not drawn) [2-ethyl-hexanol]	~3.3 MPa^1/2
CCCCCCCCCCO [1-decanol]	~10.0 MPa^1/2
CO [methanol]	~12.3 MPa^1/2
OC1CCCCC1 [cyclohexanol]	~4.1 MPa^1/2
CC(C)CCCCCO [isooctyl alcohol]	~7.3 MPa^1/2
CCCCO [1-butanol]	~5.7 MPa^1/2

same assay, conditions: glycol ethers; room temperature

SMILES	~δp
COCCO [ethylene glycol monomethyl ether]	~9.2 MPa^1/2
COCC(C)O (stereo not drawn) [propylene glycol monomethyl ether]	~6.3 MPa^1/2
COCCOCCOCCO [triethylene glycol monomethyl ether]	~7.6 MPa^1/2
CCCCOCC(C)O (stereo not drawn) [propylene glycol monobutyl ether]	~4.5 MPa^1/2
CCCOCC(C)O (stereo not drawn) [propylene glycol monopropyl ether]	~5.6 MPa^1/2
CC(C)OCCO [ethylene glycol monoisopropyl ether]	~8.2 MPa^1/2
CCOCCOCCO [diethylene glycol monoethyl ether]	~9.2 MPa^1/2
CC(C)COCC(C)O (stereo not drawn) [propylene glycol monoisobutyl ether]	~4.7 MPa^1/2
OCCOCc1ccccc1 [ethylene glycol monobenzyl ether]	~5.9 MPa^1/2
COCCOCCO [diethylene glycol monomethyl ether]	~7.8 MPa^1/2
CCCCOCCO [ethylene glycol monobutyl ether]	~5.1 MPa^1/2
CCCOCCO [ethylene glycol monopropyl ether]	~8.2 MPa^1/2
CCCCOCCOCCO [diethylene glycol mono-n-butyl ether]	~7.0 MPa^1/2
CCOCCO [ethylene glycol monoethyl ether]	~9.2 MPa^1/2
CCOCC(C)O (stereo not drawn) [propylene glycol monoethyl ether]	~6.5 MPa^1/2
OCCOc1ccccc1 [ethylene glycol monophenyl ether]	~5.7 MPa^1/2
CCCCCCCC/C=C\CCCCCCCCOCCOCCOCCO [triethylene glycol monooleyl ether]	~3.1 MPa^1/2
CC(O)COC(C)C (stereo not drawn) [propylene glycol monoisopropyl ether]	~6.1 MPa^1/2

same assay, conditions: room temperature

SMILES	δp
O [water]	≈ 16.0 MPa^1/2
